Tests used:
[1] = tested on: immune cell clusters (CD45+ cells); assay: CyTOF mass cytometry of blood and spleen with Citrus analysis; format: in vivo, mice; details: 24 h after CNO, VTA-activated vs control
Method: Two weeks after completion of the behavioral testing, mice were injected intraperitoneally with CNO and anesthetized 24 hours thereafter. Spleens and blood samples were collected. Spleens were dissociated into single-cell suspensions in 2% fetal bovine serum (Biological Industries, IL) and mesh filtered to remove clumps and debris. Blood samples were collected into heparin-coated sterile test tubes. Both the blood and the spleen cell suspensions were lysed with red blood cell lysis buffer (BD Biosciences, NJ, US). Cells ([…]) from each tissue were stained, for 1 hour at room temperature, with a mixture of metal tagged antibodies recognizing CD45, CCR3, CD80, GR1, CD86, CD19, CD4, CD45R, CD152, CD138, CD8, NK1.1, CD27, CD206, CD25, CD14, CD11c, CD49b, CD34, CD69, CD123, TCRβ, CCR7, CD28, CD115, CD133, TLR4, CD117, CD79b, CD62L, CD44, CD45RA, CD1d, IAIE, CD5, and CD11b. All antibodies were conjugated using the MAXPAR reagent (Fluidigm Inc.), with Rhodium and Iridium intercalators used to identify live/dead cells. Cells were washed twice with PBS, fixed in 1.6% formaldehyde (Sigma-Aldrich, St. Louis, MO) for 1 hour, washed again in ultrapure H2O and subjected to CyTOF mass cytometry analysis on a CyTOF I machine, with cell events acquired at approximately 500 events per second. In addition, each sample was spiked with internal metal isotope bead standards, which then was used for sample normalization by CyTOF software (Fluidigm). Acquired data was then uploaded to a Cytobank web server (Cytobank Inc.) for data processing and gating out of dead cells and normalization beads. Data was transformed using an arc sin h (X/5) transformation.
Differences in cell subset abundance and functional marker expression between VTA activated and control mice, were identified using the Citrus algorithm, a clustering and differential detection algorithm especially suited for high dimensional cytometry data (2). Twenty FCS files of normalized, live cell/no beads samples (Five VTA activated mice spleens, five VTA activated mice blood samples, 5 control mice spleen and five control mice blood) were each randomly sampled for 40,000 single cell events each. Briefly, Citrus performs three steps to identify cell subsets and differences between groups: First, collected single cell events are pooled together and iteratively hierarchically clustered using a subset of the measured channels for clustering (See Table 1 for a list of 23 clustering markers), yielding overlapping clusters with the ultimate cluster being one encompassing all sampled events. Second, the pooled dataset is split back into its constituting samples and the relative abundance of cells in each cluster is computed, as well as the median values of each functional marker (see Table 1 for a list of functional markers). Only cell clusters whose total abundance in one or more of the measured samples was greater than 1% of the total measured sample was retained for downstream analysis, yielding a total of 151 clusters. Third, the Citrus implementation of the SAM algorithm was applied, to identify, separately, differences in cell subset abundances and medians between VTA activated and control mouse samples at a predetermined FDR of 5%. Beyond this, an additional criteria for calling differences was employed, by performing a Mann-Whitney non-parametric test of significance on each cluster found to be different between VTA activated and control and requiring that it meet a p-value <0.05 criteria. Manual inspection of Citrus output was used to identify the closest known gross-cell type, matching the 23 combination clustering marker panel. A similar procedure analysis procedure was performed for 6-OHDA samples versus control. […]

[2] = mice; cited from earlier work

## C[N+]1([O-])CCN(C2=Nc3cc(Cl)ccc3Nc3ccccc32)CC1 [CNO, clozapine-N-oxide]
[1]; blood and spleen
  abundance of B-cell subsets: decreased in abundance
[1]; blood
  CD1d levels on APC subsets (granulocytes, NK cells, monocyte/macrophages): reduced
[1]; spleen
  CD25, CD69 and CD206 expression: upregulation
  CD80 and CD86 expression: Upregulation
  CD1d expression: downregulation
[2]
  conversion of CNO to clozapine: does not convert to clozapine
